Laboratory results taken from the supplement of paper PMC10307832.

Key:
Assay in all cases: relative viability (nuclei count vs DMSO), 5 days (fraction); higher = more cells survive
[1] = test system: PC-14
Method in brief: (§1)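 Dosing by pin tool came one day after lung cancer cell lines were seeded in 1536-well plates, using either one drug or a fixed anchor-drug dose plus five library-drug doses (not always all listed) in √10 steps. After 5 days, nuclei were counted on 4× images. Relative viability is treated-well nuclei count divided by vehicle-well nuclei count, and values are medians of duplicate plates.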

[2] = test system: LCLC-97TM1
Method in brief: as §1

[3] = test system: NCI-H647
Method in brief: as §1

[4] = test system: NCI-H1734
Method in brief: as §1

[5] = test system: LXF-289
Method in brief: as §1

[6] = test system: NCI-H727
Method in brief: as §1

[7] = test system: NCI-H1915
Method in brief: as §1

[8] = test system: NCI-H1993
Method in brief: as §1

[9] = test system: NCI-H2085
Method in brief: as §1

[10] = test system: NCI-H322M
Method in brief: as §1

[11] = test system: HOP-62
Method in brief: as §1

[12] = test system: NCI-H661
Method in brief: as §1

[13] = test system: EPLC-272H
Method in brief: as §1

[14] = test system: NCI-H2126
Method in brief: as §1

[15] = test system: SW 1573
Method in brief: as §1

[16] = test system: H3255
Method in brief: as §1

[17] = test system: SK-LU-1
Method in brief: as §1

[18] = test system: NCI-H2023
Method in brief: as §1

[19] = test system: NCI-H2347
Method in brief: as §1

[20] = test system: EMC-BAC-2
Method in brief: as §1

[21] = test system: NCI-H2009
Method in brief: as §1

In the case of `CC(=O)O[C@@]12CO[C@@H]1C[C@H](O)[C@@]1(C)C(=O)[C@H](O)C3=C(C)[C@@H](OC(=O)[C@H](O)[C@@H](NC(=O)OC(C)(C)C)c4ccccc4)C[C@@](O)([C@@H](OC(=O)c4ccccc4)[C@H]21)C3(C)C` [Docetaxel] + O=C(c1cc(Cc2n[nH]c(=O)c3ccccc23)ccc1F)N1CCN(C(=O)C2CC2)CC1 [Olaparib] (partner 8 µM), the relative viability ([1]; first compound 0.0002 µM) is reported as 0.276, the relative viability ([1]; first compound 0.000632 µM) is reported as 0.164 and the relative viability ([1]; first compound 0.002 µM) is reported as 0.0642. It also gave a relative viability ([1]; first compound 0.006325 µM) of 0.0438, a relative viability ([1]; first compound 0.02 µM) of 0.0274 and a relative viability ([2]; first compound 0.0002 µM) of 0.467. For the same compound, the relative viability ([2]; first compound 0.000632 µM) was 0.272, the relative viability ([2]; first compound 0.002 µM) was 0.107 and the relative viability ([2]; first compound 0.006325 µM) was 0.0877. The relative viability ([2]; first compound 0.02 µM) was 0.0634, the relative viability ([3]; first compound 0.0002 µM) was 0.449 and the relative viability ([3]; first compound 0.000632 µM) was 0.132. For the same compound, the relative viability ([3]; first compound 0.002 µM) was 0.0799, the relative viability ([3]; first compound 0.006325 µM) was 0.0764 and the relative viability ([3]; first compound 0.02 µM) was 0.0432. It also gave a relative viability ([4]; first compound 0.0002 µM) of 0.498, a relative viability ([4]; first compound 0.000632 µM) of 0.506 and a relative viability ([4]; first compound 0.002 µM) of 0.292. It also gave a relative viability ([4]; first compound 0.006325 µM) of 0.324, a relative viability ([4]; first compound 0.02 µM) of 0.196 and a relative viability ([5]; first compound 0.0002 µM) of 1.06. The relative viability ([5]; first compound 0.000632 µM) was 0.393, the relative viability ([5]; first compound 0.002 µM) was 0.195 and the relative viability ([5]; first compound 0.006325 µM) was 0.111. For the same compound, the relative viability ([5]; first compound 0.02 µM) was 0.0839, the relative viability ([6]; first compound 0.0002 µM) was 0.664 and the relative viability ([6]; first compound 0.000632 µM) was 0.526. It also gave a relative viability ([6]; first compound 0.002 µM) of 0.682, a relative viability ([6]; first compound 0.006325 µM) of 0.645 and a relative viability ([6]; first compound 0.02 µM) of 0.524. It also gave a relative viability ([7]; first compound 0.0002 µM) of 0.278, a relative viability ([7]; first compound 0.000632 µM) of 0.256 and a relative viability ([7]; first compound 0.002 µM) of 0.179. For the same compound, the relative viability ([7]; first compound 0.006325 µM) was 0.144, the relative viability ([7]; first compound 0.02 µM) was 0.0963 and the relative viability ([8]; first compound 0.0002 µM) was 0.929. For the same compound, the relative viability ([8]; first compound 0.000632 µM) was 0.918, the relative viability ([8]; first compound 0.002 µM) was 0.793 and the relative viability ([8]; first compound 0.006325 µM) was 0.531. It also gave a relative viability ([8]; first compound 0.02 µM) of 0.409, a relative viability ([9]; first compound 0.0002 µM) of 0.725 and a relative viability ([9]; first compound 0.000632 µM) of 0.826. For the same compound, the relative viability ([9]; first compound 0.002 µM) was 0.747, the relative viability ([9]; first compound 0.006325 µM) was 0.431 and the relative viability ([9]; first compound 0.02 µM) was 0.298. For the same compound, the relative viability ([10]; first compound 0.0002 µM) was 0.777, the relative viability ([10]; first compound 0.000632 µM) was 0.797 and the relative viability ([10]; first compound 0.002 µM) was 0.721. The relative viability ([10]; first compound 0.006325 µM) was 0.679, the relative viability ([10]; first compound 0.02 µM) was 0.525 and the relative viability ([11]; first compound 0.0002 µM) was 0.336. For the same compound, the relative viability ([11]; first compound 0.000632 µM) was 0.317, the relative viability ([11]; first compound 0.002 µM) was 0.129 and the relative viability ([11]; first compound 0.02 µM) was 0.12. It also gave a relative viability ([12]; first compound 0.0002 µM) of 0.738, a relative viability ([12]; first compound 0.000632 µM) of 0.701 and a relative viability ([12]; first compound 0.002 µM) of 0.592. It also gave a relative viability ([12]; first compound 0.006325 µM) of 0.434, a relative viability ([12]; first compound 0.02 µM) of 0.406 and a relative viability ([13]; first compound 0.0002 µM) of 0.527. For the same compound, the relative viability ([13]; first compound 0.000632 µM) was 0.339, the relative viability ([13]; first compound 0.002 µM) was 0.0991 and the relative viability ([13]; first compound 0.006325 µM) was 0.0687. It also gave a relative viability ([13]; first compound 0.02 µM) of 0.0452, a relative viability ([14]; first compound 0.0002 µM) of 0.887 and a relative viability ([14]; first compound 0.000632 µM) of 0.861. For the same compound, the relative viability ([14]; first compound 0.002 µM) was 0.615, the relative viability ([14]; first compound 0.006325 µM) was 0.348 and the relative viability ([15]; first compound 0.0002 µM) was 0.304. It also gave a relative viability ([15]; first compound 0.000632 µM) of 0.223, a relative viability ([15]; first compound 0.002 µM) of 0.199 and a relative viability ([15]; first compound 0.006325 µM) of 0.162. It also gave a relative viability ([15]; first compound 0.02 µM) of 0.119, a relative viability ([16]; first compound 0.0002 µM) of 0.59 and a relative viability ([16]; first compound 0.000632 µM) of 0.555. The relative viability ([16]; first compound 0.002 µM) was 0.439, the relative viability ([16]; first compound 0.006325 µM) was 0.336 and the relative viability ([16]; first compound 0.02 µM) was 0.33. For the same compound, the relative viability ([17]; first compound 0.0002 µM) was 0.479, the relative viability ([17]; first compound 0.000632 µM) was 0.349 and the relative viability ([17]; first compound 0.002 µM) was 0.315. The relative viability ([17]; first compound 0.006325 µM) was 0.256, the relative viability ([17]; first compound 0.02 µM) was 0.167 and the relative viability ([18]; first compound 0.0002 µM) was 0.437. For the same compound, the relative viability ([18]; first compound 0.000632 µM) was 0.313, the relative viability ([18]; first compound 0.002 µM) was 0.114 and the relative viability ([18]; first compound 0.006325 µM) was 0.114. It also gave a relative viability ([18]; first compound 0.02 µM) of 0.0533, a relative viability ([19]; first compound 0.0002 µM) of 0.613 and a relative viability ([19]; first compound 0.000632 µM) of 0.566. It also gave a relative viability ([19]; first compound 0.002 µM) of 0.557, a relative viability ([19]; first compound 0.006325 µM) of 0.505 and a relative viability ([19]; first compound 0.02 µM) of 0.388. For the same compound, the relative viability ([20]; first compound 0.0002 µM) was 0.492, the relative viability ([20]; first compound 0.000632 µM) was 0.47 and the relative viability ([20]; first compound 0.002 µM) was 0.364. It also gave a relative viability ([20]; first compound 0.006325 µM) of 0.318, a relative viability ([20]; first compound 0.02 µM) of 0.237 and a relative viability ([21]; first compound 0.0002 µM) of 0.606. For the same compound, the relative viability ([21]; first compound 0.000632 µM) was 0.79, the relative viability ([21]; first compound 0.002 µM) was 0.562 and the relative viability ([21]; first compound 0.006325 µM) was 0.397. It also gave a relative viability ([21]; first compound 0.02 µM) of 0.149.
